Here are results for two molecules from patent publication US4075194A, “Novel synthetic undecapeptide and clinical assay” (Yeda Research and Development Co., Ltd., priority 1976, dated 1978).

Ends that are not written are not given here.

Experiment [1] deals with antisera agglutinating CEA(1-11)-A--L-coated sheep erythrocytes. As to the kind of experiment: Inhibition of passive hemagglutination. It counts as binding. To be noted: serum concentration twice that of the hemagglutination titer. On the procedure:
Hemagglutination and Inhibition of Hemagglutination. Sheep erythrocytes were treated with formalin, tanned, and coated with the CEA(1-11) peptide or with the conjugates (CEA(1-11)-A--L or CEA(1-11)-BSA, Herbert: Handbook Exp. Immun., Oxford (1964), 720, Blackwell, Sci. Pub.
Passive microhemagglutination tests, Kabat: Structural Concepts in Immun. and Immunochem. (1968), Holt, Reinhart and Winston, Inc., N.Y., were performed on disposable microtiter plates (Cooke Engineering Co., Alexandira, Va.) by 2-fold serial dilutions of antisera in phosphate-buffered saline (0.15 M NaCl-0.01 M sodium phosphate buffer, pH 7.0), containing 0.1% ovalbumin (twice crystallized, Schwarz/Mann). The plates were incubated at room temperature and read after 2 and 4 hr.
In inhibition experiments serial dilutions of the respective inhibitor were allowed to react for 30 min with the antisera (at the last dilution that had given positive agglutination) prior to the addition of the coated erythrocytes. Inhibition results were also read after 2 and 4 hr.

The test system of a further experiment is anti-CEA(1-11)-BSA serum. As to the kind of experiment: Inhibition of inactivation of CEA(1-11)-T4 by anti-CEA(1-11)-BSA serum. The note with it: for inhibition of the inactivation of CEA(1-11)-T4: in words. The class given is binding, rabbit. On the procedure: Inactivation and Inhibition of Inactivation of CEA(1-11)-coated T4 Bacteriophage. The preparation of CEA(1-11)-coated T4 bacteriophage was carried out according to the procedure described by Haimovich et al., Biochim. Biophys. Acta 207 (1970) 115, making use of glutaraldehyde as crosslinking agent. The resulting modified bacteriophage preparation was tested for inactivation with anti-CEA(1-11)-BSA serum, by incubation for 21/2 hr at 37° in the presence of different dilutions of the antiserum, and monitoring the surviving phage by subsequent plating with bacteria.
In inhibition experiments the inhibitors were allowed to react at room temperature, overnight, with the amount of antiserum that would have caused approximately 90% inactivation of the bacteriophage conjugate, Haimovich et al. Biochim. Biophys. Acta 207 (1970) 125. The modified bacteriophage was then added to the mixture and the number of surviving phage was determined as described above. The percentage of inhibition was calculated from the extent of inactivation in the presence and in the absence of the inhibitor.

A short description of experiment [2]: Immunization of rabbits, antibody production. The class given is in vivo, rabbit. To be noted: intradermal in complete Freund's adjuvant, in words. The method, then: Immunization Procedure. Antisera against the CEA(1-11) peptide were obtained by immunizing rabbits with CEA(1-11) as the free peptide and with the two conjugates CEA(1-11)-A--L and CEA(1-11)-BSA. The rabbits were immunized by multisite intradermal injections in complete Freund's adjuvant. Each rabbit received two injections of 4 mg at 2-week intervals and was subsequently bled weekly from the marginal vein, starting 1 week after the last injection.

In the case of “LNFPTSEITLK [CEA(1-11), synthetic undecapeptide corresponding to the first eleven NH2-terminal residues of CEA, with leucine replacing valine in the 11-position]”, the “lowest concentration of inhibitor that still prevents agglutination” value in experiment [1] (antiserum against CEA(1-11)-A--L) was 1 µg/mL; in experiment [1] (antiserum against CEA(1-11)-BSA), 10 µg/mL; in experiment [1] (antiserum against Crude CEA), 100 µg/mL; in experiment [1] (antiserum against Pure CEA), 1 µg/mL. In addition, the “inhibition of the inactivation of CEA(1-11)-T4” value in the experiment with anti-CEA(1-11)-BSA serum is listed as “could be inhibited”. For the same molecule, the “Inhibition (%)” value in the experiment on anti-CEA(1-11)-BSA serum (inhibitor concentration 0.001 μg/ml) was found to be 0%; in the experiment with anti-CEA(1-11)-BSA serum (inhibitor concentration 0.0033 μg/ml) it was 38%; with anti-CEA(1-11)-BSA serum (inhibitor concentration 0.01 μg/ml), 64%; in the experiment on anti-CEA(1-11)-BSA serum (inhibitor concentration 0.033 μg/ml) it was 82%; in the experiment on anti-CEA(1-11)-BSA serum (inhibitor concentration 0.1 μg/ml), 92%; in the experiment on anti-CEA(1-11)-BSA serum (inhibitor concentration 0.33 μg/ml) it was 100%. The “Inhibition (%)” value in the experiment on anti-CEA(1-11)-BSA serum (inhibitor concentration 1 μg/ml) was determined as 98%; in the experiment with anti-CEA(1-11)-BSA serum (inhibitor concentration 3 μg/ml), 100%. The “antibody production on immunization” value in experiment [2] is reported as “antisera of low titer”.

B1: Pure CEA: carcinoembryonic antigen purified from colonic tumor tissue by perchloric acid extraction, chromatography and block electrophoresis (protein, UniProt P06731 35-685, looked up)
Cell adhesion molecule CEACAM5: KLTIESTPFNVAEGKEVLLLVHNLPQHLFGYSWYKGERVDGNRQIIGYVIGTQQATPGPAYSGREIIYPNASLLIQNIIQNDTGFYTLHVIKSDLVNEEATGQFRVYPELPKPSISSNNSKPVEDKDAVAFTCEPETQDATYLWWVNNQSLPVSPRLQLSNGNRTLTLFNVTRNDTASYKCETQNPVSARRSDSVILNVLYGPDAPTISPLNTSYRSGENLNLSCHAASNPPAQYSWFVNGTFQQSTQELFIPNITVNNSGSYTCQAHNSDTGLNRTTVTTITVYAEPPKPFITSNNSNPVEDEDAVALTCEPEIQNTTYLWWVNNQSLPVSPRLQLSNDNRTLTLLSVTRNDVGPYECGIQNELSVDHSDPVILNVLYGPDDPTISPSYTYYRPGVNLSLSCHAASNPPAQYSWLIDGNIQQHTQELFISNITEKNSGLYTCQANNSASGHSRTTVKTITVSAELPKPSISSNNSKPVEDKDAVAFTCEPEAQNTTYLWWVNGQSLPVSPRLQLSNGNRTLTLFNVTRNDARAYVCGIQNSVSANRSDPVTLDVLYGPDTPIISPPDSSYLSGANLNLSCHSASNPSPQYSWRINGIPQQHTQVLFIAKITPNNNGTYACFVSNLATGRNNSIVKSITVSASGTSPGLSA
Regarding B1, in the experiment on anti-CEA(1-11)-BSA serum, the “inhibition of the inactivation of CEA(1-11)-T4” value was “No inhibition”.
